Laboratory results reported in US6737383B1, “Herbicidal oxadiazolidines” (priority 1999, dated 2004).

What was measured:
wild oat = experiment: Test B pre/postemergence wild oat; assay type: in vivo, Avena fatua
How it was run: (§1)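 Herbicidal effect was estimated by eye on a ten-point control scale after plants spent twelve to sixteen days in a greenhouse following soil or foliar treatment. Foliar sprays targeted plants at one to four leaves; all doses were formulated in a non-phytotoxic solvent with surfactant.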

bamyardgrass = experiment: Test B flood test barnyardgrass; assay type: in vivo, Echinochloa crus-galli
How it was run: (§2)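 Read-out is a visual response score from 0 (no effect) to 10 (complete control), assigned by comparison with untreated controls. Treatment was applied at the 2-leaf stage, and plants stayed in the greenhouse for twelve to sixteen days before scoring.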

bedstraw = experiment: Test B pre/postemergence bedstraw; assay type: in vivo, Galium aparine
How it was run: as §1

corn = experiment: Test B pre/postemergence corn; assay type: in vivo, Zea mays
How it was run: as §1

morningglory = experiment: Test B pre/postemergence morningglory; assay type: in vivo, Ipomoea hederacea
How it was run: as §1

velvetleaf = experiment: Test B pre/postemergence velvetleaf; assay type: in vivo, Abutilon theophrasti
How it was run: as §1

rape = experiment: Test B pre/postemergence rape; assay type: in vivo, Brassica napus
How it was run: as §1

wheat = experiment: Test B pre/postemergence wheat; assay type: in vivo, Triticum aestivum
How it was run: as §1

cocklebur = experiment: Test B pre/postemergence cocklebur; assay type: in vivo, Xanthium strumarium
How it was run: as §1

purple nutsedge = experiment: Test B pre/postemergence purple nutsedge; assay type: in vivo, Cyperus rotundus
How it was run: as §1

surinam grass = experiment: Test B pre/postemergence surinam grass; assay type: in vivo, Brachiaria decumbens
How it was run: as §1

pigweed = experiment: Test B pre/postemergence pigweed; assay type: in vivo, Amaranthus retroflexus
How it was run: as §1

blackgrass = experiment: Test B pre/postemergence blackgrass; assay type: in vivo, Alopecurus myosuroides
How it was run: as §1

rice = experiment: Test B flood test rice; assay type: in vivo, Oryza sativa
How it was run: as §2

sugar beet = experiment: Test B pre/postemergence sugar beet; assay type: in vivo, Beta vulgaris
How it was run: as §1

giant foxtail = experiment: Test B pre/postemergence giant foxtail; assay type: in vivo, Setaria faberii
How it was run: as §1

smallflower flatsedge = experiment: Test B flood test smallflower flatsedge; assay type: in vivo, Cyperus difformis
How it was run: as §2

soybean = experiment: Test B pre/postemergence soybean; assay type: in vivo, Glycine max
How it was run: as §1

crabgrass = experiment: Test B pre/postemergence crabgrass; assay type: in vivo, Digitaria sanguinalis
How it was run: as §1

duck salad = experiment: Test B flood test duck salad; assay type: in vivo, Heteranthera limosa
How it was run: as §2

[1] = Preemergence, Rate 62 g/ha, scale of 0 to 10 where 0 is no effect and 10 is complete control
[2] = Preemergence, Rate 250 g/ha, scale of 0 to 10 where 0 is no effect and 10 is complete control
[3] = Preemergence, Rate 500 g/ha, scale of 0 to 10 where 0 is no effect and 10 is complete control
[4] = Rate 62 g/ha, Postemergence, scale of 0 to 10 where 0 is no effect and 10 is complete control
[5] = Rate 125 g/ha, Preemergence, scale of 0 to 10 where 0 is no effect and 10 is complete control
[6] = Rate 500 g/ha, Postemergence, scale 0 to 10, 0 no effect, 10 complete control
[7] = Rate 62 g/ha, headed Pre-emergence (flood test species), scale 0 to 10 (0 no effect, 10 complete control)
[8] = Rate 125 g/ha, Pre-emergence, flood test species, scale 0 to 10 where 0 is no effect and 10 is complete control
[9] = Rate 250 g/ha, Pre-emergence, flood-test species, scale 0 to 10, 0 is no effect, 10 is complete control
[10] = Rate 500 g/ha, Pre-emergence, flood test species, scale 0 to 10 (0 no effect, 10 complete control)
[11] = Rate 125 g/ha, Postemergence, scale 0 to 10

Cc1ccccc1-n1c(=O)on(C(=O)N(c2ccc(F)cc2)C(C)C2CC2)c1=O (centres unmarked) [Compound 240]
10: Plant response rating (0 to 10; 0 is no effect, 10 is complete control), Morningglory (morningglory; Rate 250 g/ha, Postemergence) | Morningglory plant response rating (morningglory; [6]) | Giant foxtail plant response rating (giant foxtail; [2]) | Plant response rating, Giant foxtail (giant foxtail; [3])
5: Bedstraw plant response rating (bedstraw; [6]) | Morningglory plant response rating (morningglory; [4]) | Blackgrass plant response rating (blackgrass; [6]) | Giant foxtail plant response rating (giant foxtail; [1]) | Giant foxtail plant response rating (giant foxtail; [5])
4: Crabgrass plant response rating (crabgrass; [5]) | Crabgrass plant response rating (crabgrass; [6])
0: Wild oats plant response rating (wild oat; [1]) | Wild oats plant response rating (wild oat; [2]) | Plant response rating, Wild oats (wild oat; [3]) | Wild oats plant response rating (wild oat; [4]) | Wild oats plant response rating (wild oat; [5]) | Barnyardgrass plant response rating (bamyardgrass; [7]) | Barnyardgrass plant response rating (bamyardgrass; [8]) | Barnyardgrass plant response rating (bamyardgrass; [9]) | Barnyardgrass plant response rating (bamyardgrass; [10]) | Bedstraw plant response rating (bedstraw; [1]) | Bedstraw plant response rating (bedstraw; [2]) | Plant response rating, Bedstraw (bedstraw; [3]) | Bedstraw plant response rating (bedstraw; [4]) | Bedstraw plant response rating (bedstraw; [5]) | Corn plant response rating (corn; [1]) | Corn plant response rating (corn; [2]) | Plant response rating, Corn (corn; [3]) | Corn plant response rating (corn; [4]) | Corn plant response rating (corn; [11]) | Corn plant response rating (corn; [5]) | Plant response rating (0 to 10; 0 is no effect, 10 is complete control), Corn (corn; Rate 250 g/ha, Postemergence) | Corn plant response rating (corn; [6]) | Morningglory plant response rating (morningglory; [1]) | Morningglory plant response rating (morningglory; [2]) | Plant response rating, Morningglory (morningglory; [3]) | Morningglory plant response rating (morningglory; [5]) | Velvetleaf plant response rating (velvetleaf; [1]) | Velvetleaf plant response rating (velvetleaf; [2]) | Velvetleaf plant response rating (velvetleaf; [4]) | Velvetleaf plant response rating (velvetleaf; [5]) | Rape plant response rating (rape; [1]) | Rape plant response rating (rape; [2]) | Plant response rating, Rape (rape; [3]) | Rape plant response rating (rape; [4]) | Rape plant response rating (rape; [5]) | Plant response rating (0 to 10; 0 is no effect, 10 is complete control), Rape (rape; Rate 250 g/ha, Postemergence) | Rape plant response rating (rape; [6]) | Wheat plant response rating (wheat; [1]) | Wheat plant response rating (wheat; [2]) | Plant response rating, Wheat (wheat; [3]) | Wheat plant response rating (wheat; [4]) | Wheat plant response rating (wheat; [5]) | Cocklebur plant response rating (cocklebur; [1]) | Cocklebur plant response rating (cocklebur; [2]) | Plant response rating, Cocklebur (cocklebur; [3]) | Cocklebur plant response rating (cocklebur; [4]) | Cocklebur plant response rating (cocklebur; [5]) | Nutsedge plant response rating (purple nutsedge; [2]) | Nutsedge plant response rating (purple nutsedge; [4]) | Plant response rating (0 to 10; 0 is no effect, 10 is complete control), Nutsedge (purple nutsedge; Rate 250 g/ha, Postemergence) | Nutsedge plant response rating (purple nutsedge; [6]) | B. signalgrass plant response rating (surinam grass; [1]) | B. signalgrass plant response rating (surinam grass; [2]) | B. signalgrass plant response rating (surinam grass; [4]) | B. signalgrass plant response rating (surinam grass; Rate 125 g/ha, Postemergence, scale 0 (no effect) to 10 (complete control)) | B. signalgrass plant response rating (surinam grass; [5]) | Plant response rating (0 to 10; 0 is no effect, 10 is complete control), B. signalgrass (surinam grass; Rate 250 g/ha, Postemergence) | B. signalgrass plant response rating (surinam grass; [6]) | Redroot pigweed plant response rating (pigweed; [1]) | Redroot pigweed plant response rating (pigweed; [2]) | Plant response rating, Redroot pigweed (pigweed; [3]) | Redroot pigweed plant response rating (pigweed; [4]) | Redroot pigweed plant response rating (pigweed; [5]) | Blackgrass plant response rating (blackgrass; [1]) | Blackgrass plant response rating (blackgrass; [2]) | Blackgrass plant response rating (blackgrass; [4]) | Blackgrass plant response rating (blackgrass; [11]) | Blackgrass plant response rating (blackgrass; [5]) | Plant response rating (0 to 10; 0 is no effect, 10 is complete control), Blackgrass (blackgrass; Rate 250 g/ha, Postemergence) | Rice plant response rating (rice; [7]) | Rice plant response rating (rice; [8]) | Rice plant response rating (rice; [9]) | Rice plant response rating (rice; [10]) | Sugarbeets plant response rating (sugar beet; [1]) | Sugarbeets plant response rating (sugar beet; [2]) | Plant response rating, Sugarbeets (sugar beet; [3]) | Sugarbeets plant response rating (sugar beet; [4]) | Sugarbeets plant response rating (sugar beet; [5]) | Giant foxtail plant response rating (giant foxtail; [4]) | Plant response rating (0 to 10; 0 is no effect, 10 is complete control), Giant foxtail (giant foxtail; Rate 250 g/ha, Postemergence) | S. Flatsedge plant response rating (smallflower flatsedge; [7]) | S. Flatsedge plant response rating (smallflower flatsedge; [8]) | S. Flatsedge plant response rating (smallflower flatsedge; [9]) | S. Flatsedge plant response rating (smallflower flatsedge; [10]) | Soybean plant response rating (soybean; [1]) | Soybean plant response rating (soybean; [2]) | Plant response rating, Soybean (soybean; [3]) | Soybean plant response rating (soybean; [4]) | Soybean plant response rating (soybean; [5]) | Crabgrass plant response rating (crabgrass; [4]) | Ducksalad plant response rating (duck salad; [7]) | Ducksalad plant response rating (duck salad; [8]) | Ducksalad plant response rating (duck salad; [9]) | Ducksalad plant response rating (duck salad; [10])
3: Bedstraw plant response rating (bedstraw; [11]) | Plant response rating (0 to 10; 0 is no effect, 10 is complete control), Bedstraw (bedstraw; Rate 250 g/ha, Postemergence) | Velvetleaf plant response rating (velvetleaf; [6]) | Plant response rating, B. signalgrass (surinam grass; [3]) | Sugarbeets plant response rating (sugar beet; [6]) | Soybean plant response rating (soybean; [6])
9: Crabgrass plant response rating (crabgrass; [2]) | Plant response rating, Crabgrass (crabgrass; [3])
7: Redroot pigweed plant response rating (pigweed; [6])
2: Wild oats plant response rating (wild oat; [6]) | Plant response rating, Velvetleaf (velvetleaf; [3]) | Wheat plant response rating (wheat; [6]) | Plant response rating (0 to 10; 0 is no effect, 10 is complete control), Redroot pigweed (pigweed; Rate 250 g/ha, Postemergence) | Plant response rating, Blackgrass (blackgrass; [3]) | Giant foxtail plant response rating (giant foxtail; [6]) | Crabgrass plant response rating (crabgrass; [1]) | Plant response rating (0 to 10; 0 is no effect, 10 is complete control), Crabgrass (crabgrass; Rate 250 g/ha, Postemergence)
1: Cocklebur plant response rating (cocklebur; [11]) | Plant response rating (0 to 10; 0 is no effect, 10 is complete control), Cocklebur (cocklebur; Rate 250 g/ha, Postemergence) | Cocklebur plant response rating (cocklebur; [6])
